In article PMC6270778, “Novel Cinnamic Acid Derivatives as Antioxidant and Anticancer Agents: Design, Synthesis and Modeling Studies” (Molecules, 2014):
Values joined by “and” are separate entries in the source; they are usually repeats but may differ in a detail not shown here. Identical values can stand only once. Marks after values point to notes of the source that are not given here.

Assays:
MRC-5 normal cells = assay: SRB cytotoxicity assay, MRC-5 normal cells; format: cell-based; details: Homo sapiens, MRC5, 50% growth inhibition, 48 h exposure
Experimental: Thus, we conducted in vitro studies in two colon cancer cell lines (HT-29 and HCT-15) reported time and dose-dependent stimulation of cell proliferation by LTB4 and 12-HETE [46]. The synthesized acids have been tested in five different human tumour cell lines: HT-29 (colon), A-549 (lung), OAW-42 (ovarian), MDA-MB-231 (breast), HeLa (immortal cells from cervical cancer) and MRC-5 normal cells.
(§1) Cell passages were carried out by detaching adherent, logarithmically growing cells after addition of 2–3 mL of a mixture of 0.05% solution of trypsin (Gibco, 1:250) in phosphate-buffered saline (PBS) with 0.02% EDTA and incubation for 3–5 min at 37 °C. For the experiments, cells were plated (100 μL containing 10,000 cells/well) in 96-well flat-bottom microplates microplates (Costar-Corning, Acton, MA 01720, USA) so that untreated cells were in exponential growth phase at the time of cytotoxicity evaluation. Cells were left for 24 h at 37 °C to resume exponential growth and stabilization and afterwards exposed to tested agents for 48 h by the addition of an equal volume (100 μL) of either complete culture medium (control wells), or twice the final drug concentrations diluted in complete culture medium (test wells). Drug cytotoxicity was measured by means of the SRB colorimetric assay estimating the survival fractions (SF) as the percent of control (untreated cells) absorbance. The SRB assay was carried out as previously described and modified by our group. In brief, culture medium was aspirated prior to fixation using a microplate-multiwash device (Tri-Continent Scientific, Inc., Grass Valley, CA, USA) and 50 μL of 10% cold (4 °C) trichloroacetic acid (TCA) were gently added to the wells. Microplates were left for 30 min at 4 °C, washed five times with deionized water and left to dry at room temperature for at least 24 h. Subsequently, 70 μL of 0.4% (w/v) sulforhodamine B (Sigma) in 1% acetic acid solution were added to each well and left at room temperature for 20 min. SRB was removed and the plates were washed five times with 1% acetic acid before air drying. Bound SRB was solubilized with 200 μL of 10 mM unbuffered Tris-base solution and plates were left on a plate shaker for at least 10 min. Absorbance was read in a 96-well plate reader at 492 nm subtracting the background measurement at 620 nm. The test optical density (OD) value was defined as the absorbance of each individual well, minus the blank value (“blank” is the mean optical density of the background control wells, n = 8). Mean values and the coefficient of variation (CV) from six replicate wells were calculated automatically. Results were expressed as the “survival fraction” (SF), as shown below.
(§2) For each tested compound a dose-effect curve was produced. Sextuplicate determinations gave a CV (Standard Deviation/mean %) of much less than 10%, resulting in standard error (SE) which was very low in all cases. The data showing inhibition of cellular growth are expressed as the fraction of cells that remains unaffected (fu) (survival fraction, SF), which is derived from the following equation: fu = ODx/ODc where ODx and ODc represent the test and the control optical density, respectively.

[1] = ABTS+ decolorization assay; details: 0.1 mM
Experimental: The ABTS^•+ is derived from the oxidation of ABTS by potassium persulfate. It is a decolorization assay. The addition of electron-donating antioxidants leads to ABTS^•+ reduction. The chemistry taking place involves the direct generation of the ABTS^•+ with no involvement of an intermediary radical.
In this assay, ethanol is used for the dilution of the ABTS^+• solution. ABTS is dissolved in water to a 7 mM and reacts with 2.45 mM […] to produce the ABTS radical cation (ABTS^+•) by allowing the mixture to stand in the dark at room temperature for 12–16 h before use. Ten μL of diluted ABTS^+• solution (734 nm) is added to 10 μL of antioxidant compounds or Trolox standards (final concentration 0–0.1 mM) in ethanol and the absorbance is measured at 30 °C exactly 1 min after the initial mixing (Table 3).

MDA-MB-231 (breast) = assay: SRB cytotoxicity assay, MDA-MB-231; format: cell-based; details: Homo sapiens, 50% growth inhibition, 48 h exposure
Experimental: (§3) Human cancer cell lines used as targets were HT-29 (colon), A-549 (lung), OAW-42 (ovarian), MDA-MB-231 (breast), HeLa (immortal cells from cervical cancer). All cells were obtained from the American Type Culture Collection (ATCC). Cells were routinely grown as monolayer cell cultures in T-75 flasks (Costar) in an atmosphere containing 5% CO2 in air and 100% relative humidity at 37 °C and subcultured twice a week, restricting the total number of cell passages below 20. The culture medium used was Dulbecco’s modified Eagle’s medium (DMEM, Gibco, Grand Island, NY, USA) supplemented with 10% fetal bovine serum (Gibco), 2 mM glutamine (Sigma), 100 μg/mL streptomycin and 100 IU/mL penicillin.
as §1, §2

[2] = Determination of RM values by reversed phase TLC (RPTLC); format: physicochemical; details: CH3OH:H2O:CH3COOH (77:23:0.1), average of at least 10 measurements
Experimental: Lipophilicity represents a significant physicochemical property for the absorption, distribution, metabolism and excretion of drugs (ADME properties). In this study the experimentally lipophilicity as RM values is measured by the reverse-phase thin layer chromatography (RPTLC), a reliable, fast and convenient method. The obtained values were compared with the corresponding log P values in n-octanol-buffer estimated by ClogP [33, 34]. It is well known that lipophilicity plays an important role at the ADME properties. In the present study additionally, it influences the radical scavenging property (i.e., in an aqueous phase) or the chain-breaking antioxidant activity (i.e., in biological membranes).
Reversed phase TLC (RPTLC) was studied using silica gel plates saturated with 55% (v/v) liquid paraffin in light petroleum ether and methanol/water mixture (77/23, v/v) containing 0.1% of acetic acid was used as a mobile phase. Spots were detected under UV light or by iodine vapours. RM values were determined by the corresponding Rf values (from ten individual measurements) using the equation RM = log [(1/Rf) − 1] [23, 24, 25].

[3] = system: HeLa (immortal cells from cervical cancer); assay: SRB cytotoxicity assay, HeLa; format: cell-based; details: Homo sapiens, 50% growth inhibition, 48 h exposure
Experimental: as §3, §1, §2

A-549 (lung) = assay: SRB cytotoxicity assay, A-549; format: cell-based; details: Homo sapiens, A549, 50% growth inhibition, 48 h exposure
Experimental: as §3, §1, §2

Row | RM (±SD) [2] | Structure (SMILES) | IC50 (MRC-5 normal cells) [µM] | ABTS+· (%) (±SD) [1] | IC50 (MDA-MB-231 (breast)) [µM] | IC50 [3] [µM] | IC50 (A-549 (lung)) [µM]
1 | 0.566 (0.001) ^e | O=C(O)C(=CC(Br)=Cc1ccccc1)c1ccccc1 [Compound 4i, 4-Bromo-2,5-diphenylpenta-2,4-dienoic acid] | 92 ± 1.3 | 24 ± 0.5% | 250 ± 1.2 | 80 ± 0.9 | 210 ± 1
2 | −0.847 (0.044) ^e | O=C(O)C=CC(Br)=Cc1ccccc1 [Compound 4ii, 4-Bromo-5-phenylpenta-2,4-dienoic acid] | 24 ± 0.6 | 26 ± 0.4% | 47.5 ± 0.7 | 30 ± 0.4 | 173.5 ± 1.4

Continued, compound first:

Row | Structure (SMILES) | RM (±SD) [2] | IC50 (MRC-5 normal cells) [µM] | ABTS+· (%) (±SD) [1] | IC50 (MDA-MB-231 (breast)) [µM] | IC50 [3] [µM] | IC50 (A-549 (lung)) [µM]
3 | N#Cc1ccc(C=CC(=O)O)cc1 [Compound 1ii, 3-(4-Cyanophenyl)acrylic acid] | −0.972 (0.032) ^e | > 240 | 47.4% and 47 ± 0.8% | > 240 | > 240 | > 240
4 | O=C(O)C=CC=Cc1ccc([N+](=O)[O-])cc1 [Compound 2ii, 5-(4-Nitrophenyl)penta-2,4-dienoic acid] | −0.868 (0.019) ^e | 240 ± 1 | 35 ± 0.9% | > 240 | 240 ± 1.6 | > 240
5 | O=C(O)C(=CC=Cc1ccc([N+](=O)[O-])cc1)c1ccccc1 [Compound 2i, 5-(4-Nitrophenyl)-2-phenylpenta-2,4-dienoic acid] | −0.706 (0.062) ^e | 96.3 ± 1.1 | 26 ± 0.5% | 199 ± 1.9 | 118 ± 1.4 | 134 ± 1.6
6 | N#Cc1ccc(C=C(C(=O)O)c2ccccc2)cc1 [Compound 1i, 3-(4-Cyanophenyl)-2-phenylacrylic acid] | −0.895 (0.004) ^e | 222 ± 1.3 | 26 ± 0.4% | > 240 | > 240 | > 240
7 | O=C(O)C(=CC=Cc1ccccc1)c1ccccc1 [Compound 3i, 2,5-Diphenylpenta-2,4-dienoic acid] | 0.987 (0.018) ^e | > 240 | 26 ± 0.8% | > 240 | > 240 | > 240
8 | O=C(O)C=CC=Cc1ccccc1 [Compound 3ii, 5-Phenylpenta-2,4-dienoic acid] | −0.893 (0.002) ^e | 240 ± 1.8 | 31 ± 1.1% | > 240 | > 240 | > 240
